# Reference: PMC11820944, “Safirinium Fluorescent “Click” Molecular Probes: Synthesis, CuAAC Reactions, and Microscopic Imaging” (Molecules, 2025)
# Experiments:
# CHO-K1 cells = assay: Cellular uptake and distribution by fluorescence (confocal) microscopy; type: cell-based, Chinese hamster; settings: 10 µM, 30 min
# Protocol: Figure 6 Cellular uptake and intracellular distribution of selected probes (1 and 6) and triazole derivatives (11, 12, 13, and 15) in Chinese hamster ovary cells. CHO-K1 cells were cultured overnight and then incubated with the tested compounds (10 μM). Representative images (100× magnification) illustrating intracellular distribution of the compounds in CHO-K1 cells were captured after 30 min of incubation with the tested compounds. Scale bar = 20 μm.
# CHO-K1 cells were seeded at a density of 2 × 10^5/well in 12-well plates containing cover slips at the bottom and cells were incubated for 24 h. Then, cells were fixed in 3.7% formaldehyde in PBS for 10 min in 37 °C, washed twice with PBS, and stained with compound solution (10 µM) for 30 min. After this time, the cells were rinsed 2 times with Gibco FluoroBrite DMEM and a coverslip was placed on a stock carrier with drops of culture medium. Finally, slides were mounted in ProLong™ Glass Antifade Mountant and visualized under an A1 confocal system built on a Nikon Eclipse Ti-E microscope (Japan) equipped with 405 and 561 nm diode lasers and a Plan Apo 100×/1.4 Oil DIC objective.
# [1] = Chemical stability of aqueous solution in daylight, RP-HPLC with fluorescence detection; type: physicochemical
# Description: To assess the chemical stability of Safirinium-based alkyne probes for RP-HPLC analysis, we developed a preliminary RP-HPLC method with fluorescent detection for the alkyne probe 1. This was accomplished using an LC-PCN column and a simple isocratic elution approach. Subsequently, we prepared a 10^−6 M aqueous solution of probe 1 and kept it exposed to natural daylight on a laboratory bench for 7 days. […] Assuming pseudo-first-order kinetics, it can be calculated that probe 1 can remain stable (95%) under such conditions for 12 h.
# RP-HPLC analyses with fluorescence detection (Method B) were performed on a LaChrom Elite HPLC system, (VWR-Hitachi, Japan), equipped with a L-2130 pump, a L-2485 FL detector, a L-2350 column oven, and an L-2200 autosampler, the system was controlled with EZChrom Elite version 3.2, Agilent software. Separations were performed on a SUPELCOSIL LC-PCN 250 × 4.6 mm column with 5 µm grain size, under 1 mL/min isocratic elution with 50:50 v/v water: acetonitrile mixture, acidified with 0.1% formic acid. Injection volume was 20 µL; 10^−6 mol/dm^3 solution of probe 1 in water was prepared in a clear HPLC sample vial and analyzed directly after preparation and after 7 days (168 h) of standing on a lab bench, exposed to natural daylight at room temperature. Example chromatograms are presented in the electronic supporting information.
# [2] = Fluorescence emission spectra and quantum yields (comparative method); type: physicochemical; settings: for λ Emission: 1·10^-6 mol/dm^3, 365 nm excitation; for Fluorescence Quantum Yield: against A1 standard
# Protocol: Fluorescence spectra were recorded using a Hitachi F-70000 spectrofluorimeter (P VWR-Hitachi, Japan), for 1 × 10^−6 mol/dm^3 solutions of the compounds in water and acetonitrile, at 365 nm excitation wavelength, using 5 nm excitation and 2.5 nm emission slits, and 700 V photomultiplier voltage. The spectra (Figures S2 and S4) were recorded in 400–700 nm range. The 1 × 10^−6 mol/dm^3 solutions were prepared by 100-fold dilution of the solutions used for absorption measurement.
# Quantum yields of fluorescence (Table 1) were determined using the comparative method, from Formula (1), using the recorded absorption and emission spectra and diethyl Safirinium P zwitterion A1 (ϕ = 0.755 in water) as standard.(1) Φ=ΦstdFAstdnstd2/FstdAn^2 where ϕ, ϕstd—quantum yields; F, Fstd—integrals under fluorescence emission curves; A, Astd—absorbance at excitation wavelength, and n, nstd—refractive indices, for the compound and standard (std subscript), respectively.
# [3] = MTT cell viability assay, NIH-3T3 cells; type: cell-based; settings: mouse, 24 h incubation, read-out: IC50 (cytotoxicity, cell viability)
# Description: (§1) CHO-K1 cell line was derived as a subclone from the parental CHO cell line, which was initiated from a biopsy of an ovary of an adult, female Chinese hamster commercially available in ATCC (CCL-61™). NIH-3T3 cell line was obtained from DSMZ, the German Collection of Microorganisms and Cell Cultures. CHO-K1 and NIH-3T3 cells were cultivated in F-12K Medium (ATCC 30-2004) and Dulbecco’s MEM with Glutamax™ 1 Medium (Gibco, Paisley, UK), respectively. Culture media were supplemented with fetal bovine serum (FBS, Gibco, Thermo Fisher Scientific, Waltham, MA, USA) to a final concentration of 10% and antibiotic to final concentration of 1% (pent/strept, Gibco, Thermo Fisher Scientific, Waltham, MA, USA). Cells were cultured in standard culture conditions (5% CO2, 37 °C, 95% humidity).
# Cell viability was determined by the 3-(4,5-dimethylthiazol-2-yl)-2,5-diphenyltetrazolium bromide (MTT, Sigma Aldrich, Burlington, MA, USA) assay. Cells were seeded into 96-well plates at density of 2 × 10^4 cell/well and cultured in the presence of compounds (1–4, 6–9, 11–13, and 15) at concentration range 1.56–100 µM for 24 h. The MTT reagent (final concentration 0.5 mg/mL) was added to each well for 3 h, and then formazan crystals were dissolved in DMSO. The absorbance was measured at 570 nm (SpectraMax® iD3, Molecular Devices, San Jose, CA, USA) and the experiment was performed two times in duplicates. Cells viability was expressed as a percentage of viability (in comparison to non-treated cells normalized to 100%). Data were analyzed using GraphPad Prism Software (GraphPad Software, Inc., San Diego, CA, USA, version 10.3.1).
# in vitro = type: cell-based; settings: Chinese hamster
# Description: as §1
# Cell viability was determined by the 3-(4,5-dimethylthiazol-2-yl)-2,5-diphenyltetrazolium bromide (MTT, Sigma Aldrich, Burlington, MA, USA) assay. […] The absorbance was measured at 570 nm (SpectraMax® iD3, Molecular Devices, San Jose, CA, USA) and the experiment was performed two times in duplicates. Cells viability was expressed as a percentage of viability (in comparison to non-treated cells normalized to 100%). Data were analyzed using GraphPad Prism Software (GraphPad Software, Inc., San Diego, CA, USA, version 10.3.1).
# [4] = design: method as in PMID 23893376; settings: in water; cited from earlier work
λ Emission ([2]; Acetonitrile) [nm],Fluorescence Quantum Yield ([2]; Acetonitrile),λ Emission ([2]; H2O) [nm],Fluorescence Quantum Yield ([2]; H2O),SMILES,Cellular uptake and intracellular distribution (CHO-K1 cells),IC50 at 24 h [3] [µM],further results
443,0.86,446,1.00,"C#CCNC(=O)C1=C(C)C=C(C)N2C[N+](CC)(CC)N=C12.[Br-] [Compound 1, 2,2-Diethyl-5,7-dimethyl-8-[(prop-2-yn-1-yl)carbamoyl]-2H,3H-[1,2,4]triazolo [4,3-a]pyridin-2-ium bromide]","capable of entering the cytoplasm of the cells; however, they did not penetrate the nuclei",,"half-life ([1]; 10^-6 M aqueous solution exposed to natural daylight): ~168 h; RP-HPLC peak area decrease ([1]; 10^-6 M aqueous solution, natural daylight, room temperature, 7 days): 50%; Time of remaining stable (95%) ([1]; aqueous solution exposed to daylight, assuming pseudo-first-order kinetics): 12 h"
,,,,"C#CCNC(=O)C1=C(C)C=C(C)N2C[N+](CCCCCCCC)(CCCCCCCC)N=C12 [Compound 2, 5,7-Dimethyl-2,2-dioctyl-8-(prop-2-yn-1-ylcarbamoyl)-2,3-dihydro-[1,2,4]triazolo[4,3-a]pyridin-2-ium bromide]",,17.5,
455,0.71,462,0.62,"C#CCNC(=O)C1=Cc2ccccc2N2C[N+](CC)(CC)N=C12.[Br-] [Compound 3, 2,2-Diethyl-4-(prop-2-yn-1-ylcarbamoyl)-1,2-dihydro-[1,2,4]triazolo[4,3-a]quinolin-2-ium bromide]",,,
,,,,"C#CCNC(=O)C1=Cc2ccccc2N2C[N+](CCCCCCCC)(CCCCCCCC)N=C12 [Compound 4, 2,2-Dioctyl-4-(prop-2-yn-1-ylcarbamoyl)-1,2-dihydro-[1,2,4]triazolo[4,3-a]quinolin-2-ium bromide]",,8.7,IC50 at 24 h (in vitro): 17.3 µM
,,,,"CC[N+]1(CC)CN2C(C)=CC(C)=C(C(=O)NCCCCCN=[N+]=[N-])C2=N1.[Br-] [Compound 6, 8-((5-Azidopentyl)carbamoyl)-2,2-diethyl-5,7-dimethyl-2,3-dihydro-[1,2,4]triazolo[4,3-a]pyridin-2-ium bromide]","capable of entering the cytoplasm of the cells; however, they did not penetrate the nuclei",,
,,,,"CCCCCCCC[N+]1(CCCCCCCC)CN2C(C)=CC(C)=C(C(=O)NCCCCCN=[N+]=[N-])C2=N1 [Compound 7, 8-((5-Azidopentyl)carbamoyl)-5,7-dimethyl-2,2-dioctyl-2,3-dihydro-[1,2,4]triazolo[4,3-a]pyridin-2-ium bromide]",,26.4,
452,0.68,459,0.60,"CC[N+]1(CC)CN2C(=N1)C(C(=O)NCCCCCN=[N+]=[N-])=Cc1ccccc12.[Br-] [Compound 8, 4-((5-Azidopentyl)carbamoyl)-2,2-diethyl-1,2-dihydro-[1,2,4]triazolo[4,3-a]quinolin-2-ium bromide]",,,
,,,,"CCCCCCCC[N+]1(CCCCCCCC)CN2C(=N1)C(C(=O)NCCCCCN=[N+]=[N-])=Cc1ccccc12 [Compound 9, 4-((5-Azidopentyl)carbamoyl)-2,2-dioctyl-1,2-dihydro-[1,2,4]triazolo[4,3-a]quinolin-2-ium bromide]",,13,IC50 at 24 h (in vitro): 11 µM
443,0.86,446,0.28,"CCCCCCCCCCCCCCn1cc(CNC(=O)C2=C(C)C=C(C)N3C[N+](CC)(CC)N=C23)nn1.[Br-] [Compound 11, 2,2-Diethyl-5,7-dimethyl-8-(((1-tetradecyl-1H-1,2,3-triazol-4-yl)methyl)carbamoyl)-2,3-dihydro-[1,2,4]triazolo[4,3-a]pyridin-2-ium bromide]","capable of entering the cytoplasm of the cells; however, they did not penetrate the nuclei",,
,,,,"CC[N+]1(CC)CN2C(=N1)C(C(=O)NCc1cn(C3O[C@H](COC(C)=O)[C@@H](OC(C)=O)[C@H](OC(C)=O)[C@H]3OC(C)=O)nn1)=Cc1ccccc12.[Br-] (stereo partly drawn) [Compound 12, 2,2-Diethyl-4-(((1-((3R,4S,5R,6R)-3,4,5-triacetoxy-6-(acetoxymethyl)tetrahydro-2H-pyran-2-yl)-1H-1,2,3-triazol-4-yl)methyl)carbamoyl)-1,2-dihydro-[1,2,4]triazolo[4,3-a]quinolin-2-ium bromide]","capable of entering the cytoplasm of the cells; however, they did not penetrate the nuclei",,
452,0.45,462,0.59,"CC[N+]1(CC)CN2C(=N1)C(C(=O)NCc1cn(C3CC(n4cc(C)c(=O)[nH]c4=O)OC3CO)nn1)=Cc1ccccc12 (stereo not shown) [Compound 13, 4-(((1-((2-(hydroxymethyl)-5-(5-methyl-2,4-dioxo-1,2,3,4-tetrahydropyrimidin-1-yl)oxolan-3-yl)-1H-1,2,3-triazol-4-yl)methyl)carbamoyl)-2,2-diethyl-1,2-dihydro-[1,2,4]triazolo[4,3-a]quinolin-2-ium bromide]","capable of entering the cytoplasm of the cells; however, they did not penetrate the nuclei",,
454,0.53,459,0.55,"CC[N+]1(CC)CN2C(=N1)C(C(=O)NCCCCCn1cc(CO)nn1)=Cc1ccccc12.[Br-] [Compound 15, 2,2-Diethyl-4-({5-[4-(hydroxymethyl)-1H-1,2,3-triazol-1-yl]pentyl}carbamoyl)-1H,2H-[1,2,4]triazolo[4,3-a]quinolin-2-ium bromide]","capable of entering the cytoplasm of the cells; however, they did not penetrate the nuclei",,
,,,,CC[N+]1(CC)CN2C(C)=CC(C)=C(C(=O)[O-])C2=N1 [Compound A1],,,Fluorescence quantum yield (ϕ) of standard [4]: 0.755
